In patent US20260297042A1, “BIARYLAMIDE DERIVATIVES AND THEIR USE AS PKMYT1 INHIBITORS” (CANCER RESEARCH TECHNOLOGY LIMITED, priority 2023, published 2026):

Key:
Human PKMYT1 = biological target: T1, Human PKMYT1 (Homo sapiens, UniProt Q99640); assay: PKMYT1 biochemical ADP-Glo enzymatic assay; conditions: ADP-Glo
T1 construct: Human PKMYT1 75-362 was cloned as a TEV cleavable 6xHis fusion; 6xHis (TEV cleavable) (cleaved yes); made in house; host or cells: bacterial cells
T1 sequence (Q99640 75-362): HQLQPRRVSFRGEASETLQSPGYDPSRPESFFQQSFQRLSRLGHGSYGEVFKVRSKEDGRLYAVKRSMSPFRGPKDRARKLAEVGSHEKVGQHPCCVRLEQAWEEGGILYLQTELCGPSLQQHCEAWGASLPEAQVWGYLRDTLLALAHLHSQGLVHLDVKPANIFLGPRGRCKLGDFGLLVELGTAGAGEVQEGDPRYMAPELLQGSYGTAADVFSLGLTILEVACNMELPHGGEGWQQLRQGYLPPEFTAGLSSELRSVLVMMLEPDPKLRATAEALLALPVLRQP
Outline: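 PKMYT1 75-362 (His-cleaved, bacterial) 15 nM; ATP 500 µM; HEPES pH 7.5, MgCl2, EGTA, Brij-35, 1% DMSO; 60 min, 26 °C; ADP-Glo Max luminescence; 10-pt 3-fold titration → IC50; replicates within 3-fold, r2 >0.9.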

WEE1 = biological target: T2, WEE1 (Homo sapiens, UniProt P30291); assay: Selectivity versus WEE1 assay (ADP-Glo enzymatic assay); format: biochemical; conditions: for IC50: ADP-Glo; for PKMYT1 vs. WEE1 selectivity: fold difference in selectivity for PKMYT1 over WEE1
T2 construct: purchased Thermo Fisher PR7373A
Outline: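 15 nM WEE1, 30 µM ATP, 50 mM HEPES pH 7.5, 10 mM MgCl2, 1 mM EGTA, 0.01% Brij-35, 1% DMSO; 60 min, 26° C; ADP-Glo luminescence; IC50 from curve fit, replicates within 3-fold, r2 >0.9.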

[1] = PKMYT1 kinase domain 15 nM, banded values
[2] = 15 nM PKMYT1 kinase domain, 500 µM ATP, 60 minutes at 26° C., banded
[3] = 15 nM WEE1, 60 minutes at 26° C., banded
[4] = banded, ">N" = at least in this band but could be higher

T2 sequence (P30291 whole entry): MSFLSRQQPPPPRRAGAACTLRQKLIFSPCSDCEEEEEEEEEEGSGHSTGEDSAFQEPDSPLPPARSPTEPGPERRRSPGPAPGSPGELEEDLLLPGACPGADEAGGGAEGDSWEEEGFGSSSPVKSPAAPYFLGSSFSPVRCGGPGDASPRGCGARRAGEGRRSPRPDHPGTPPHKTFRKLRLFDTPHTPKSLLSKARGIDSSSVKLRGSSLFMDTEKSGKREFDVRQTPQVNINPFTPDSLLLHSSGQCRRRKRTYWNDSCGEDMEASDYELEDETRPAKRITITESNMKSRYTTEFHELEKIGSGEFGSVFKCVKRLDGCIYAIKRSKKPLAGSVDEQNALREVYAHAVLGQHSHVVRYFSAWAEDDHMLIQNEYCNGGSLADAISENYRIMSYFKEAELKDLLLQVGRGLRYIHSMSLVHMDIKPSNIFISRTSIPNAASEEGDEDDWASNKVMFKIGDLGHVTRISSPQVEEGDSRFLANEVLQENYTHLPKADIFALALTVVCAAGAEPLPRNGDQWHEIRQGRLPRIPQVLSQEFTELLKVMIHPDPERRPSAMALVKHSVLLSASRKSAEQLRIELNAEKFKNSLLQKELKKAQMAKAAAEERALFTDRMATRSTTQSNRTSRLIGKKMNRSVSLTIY

Compound	IC50 (Human PKMYT1; [1]) [nM]	IC50 (WEE1; WEE1 15 nM, banded values) [µM]	PKMYT1 vs. WEE1 selectivity (WEE1; banded)	IC50 (Human PKMYT1; [2]) [nM]	IC50 (WEE1; [3]) [µM]	PKMYT1 vs. WEE1 selectivity (WEE1; [4])
Cc1ccc(O)c(C)c1NC(=O)c1cnc(Nc2cc(C)n(C(C)C(=O)N3CCCC3)n2)s1 (stereo not drawn) [BAA-508, N-(3-hydroxy-2,6-dimethylphenyl)-2-((5-methyl-1-(1-oxo-1-(pyrrolidin-1-yl)propan-2-yl)-1H-pyrazol-3-yl)amino)thiazole-5-carboxamide]	50 to 1000	> 11	W (10-<100 fold)	–	–	–
Cc1ccc(O)c(C)c1NC(=O)c1cnc(Nc2ccc(NC(=O)c3c(F)cc(F)cc3F)cn2)s1 [BAA-302, N-(3-hydroxy-2,6-dimethylphenyl)-2-((5-(2,4,6-trifluorobenzamido)pyridin-2-yl)amino)thiazole-5-carboxamide]	–	–	–	50 to 1000	> 11	X (100-<1000 fold)
Cc1ccc(O)c(C)c1NC(=O)c1cnc(Nc2ccc(NC(=O)CC(C)C)cn2)s1 [BAA-299, N-(3-hydroxy-2,6-dimethylphenyl)-2-((5-(3-methylbutanamido)pyridin-2-yl)amino)thiazole-5-carboxamide]	–	–	–	< 50	1 to 11	X (100-<1000 fold)
Cc1cc(Nc2ncc(C(=O)Nc3c(C)ccc(O)c3C)s2)n(C)n1 [BAA-127, 2-[(2,5-dimethylpyrazol-3-yl)amino]-N-(3-hydroxy-2,6-dimethyl-phenyl)thiazole-5-carboxamide]	–	–	–	< 50	> 11	Y (1000-5000 fold)
Cc1ccc(O)c(C)c1NC(=O)c1cnc(Nc2ccn(CC(=O)N3CCN(C(C)C)CC3)n2)s1 [BAA-178]	–	–	–	50 to 1000	> 11	X (100-<1000 fold)
Cc1ccc(O)c(C)c1NC(=O)c1cnc(Nc2cc(N3CCNCC3)ncn2)s1 [BAA-575, N-(3-Hydroxy-2,6-dimethylphenyl)-2-((6-(piperazin-1-yl)pyrimidin-4-yl)amino)thiazole-5-carboxamide]	< 50	0.05 to 1	W (10-<100 fold)	–	–	–
COc1ccc2cc(Nc3ncc(C(=O)Nc4c(C)ccc(O)c4C)s3)nn2c1 [BAA-242, N-(3-Hydroxy-2,6-dimethylphenyl)-2-((6-methoxypyrazolo[1,5-a]pyridin-2-yl)amino)thiazole-5-carboxamide]	–	–	–	50 to 1000	> 11	Y (1000-5000 fold)
Cc1ccc(O)c(C)c1NC(=O)c1cnc(Nc2ccn(CC(=O)NC(C)C)n2)s1 [BAA-189, N-(3-hydroxy-2,6-dimethyl-phenyl)-2-[[1-[2-(isopropylamino)-2-oxo-ethyl]pyrazol-3-yl]amino]thiazole-5-carboxamide]	–	–	–	50 to 1000	> 11	Y (1000-5000 fold)
Cc1ccc(O)c(C)c1NC(=O)c1cnc(Nc2cccc(C(=O)NC(C(C)C)C(F)(F)F)c2)s1 (stereo not drawn) [BAA-259, N-(3-hydroxy-2,6-dimethylphenyl)-2-((3-((1,1,1-trifluoro-3-methylbutan-2-yl)carbamoyl)phenyl)amino)thiazole-5-carboxamide]	–	–	–	50 to 1000	> 11	X (100-<1000 fold)
Cc1ccc(O)c(C)c1NC(=O)c1cnc(Nc2ccn(CC(=O)N3CCN(CCO)CC3)n2)s1 [BAA-153]	–	–	–	< 50	> 11	Y (1000-5000 fold)
Cc1ccc(O)c(C)c1NC(=O)c1cnc(Nc2cc(C(=O)O)nn2C)s1 [BAA-121, 5-[[5-[(3-hydroxy-2,6-dimethyl-phenyl)carbamoyl]thiazol-2-yl]amino]-1-methyl-pyrazole-3-carboxylic acid]	–	–	–	50 to 1000	> 11	X (100-<1000 fold)
Cc1ccc(O)c(C)c1NC(=O)c1cnc(Nc2ccn(CC(=O)N3CCCN(C)CC3)n2)s1 [BAA-171]	–	–	–	< 50	> 11	X (100-<1000 fold)
Cc1ccc(O)c(C)c1NC(=O)c1cnc(Nc2n[nH]c3cc(F)cc(F)c23)s1 [BAA-452, 2-((4,6-difluoro-1H-indazol-3-yl)amino)-N-(3-hydroxy-2,6-dimethylphenyl)thiazole-5-carboxamide]	50 to 1000	> 11	X (100-<1000 fold)	–	–	–
COCCN(CCOC)C(=O)Cn1cc(C)c(Nc2ncc(C(=O)Nc3c(C)ccc(O)c3C)s2)n1 [BAA-542, 2-((1-(2-(bis(2-methoxyethyl)amino)-2-oxoethyl)-4-methyl-1H-pyrazol-3-yl)amino)-N-(3-hydroxy-2,6-dimethyl-phenyl)thiazole-5-carboxamide]	< 50	> 11	X (100-<1000 fold)	–	–	–
CCc1c(O)ccc(C)c1NC(=O)c1cnc(Nc2ccn(C)n2)s1 [BAA-469, N-(2-Ethyl-3-hydroxy-6-methylphenyl)-2-((1-methyl-1H-pyrazol-3-yl)amino)thiazole-5-carboxamide]	50 to 1000	> 11	X (100-<1000 fold)	–	–	–
Cc1ccc(O)c(C)c1NC(=O)c1cnc(Nc2ccn(CC(=O)N3CCN(C4CCCCC4)CC3)n2)s1 [BAA-187]	–	–	–	< 50	> 11	Y (1000-5000 fold)
Cc1ccc(O)c(C)c1NC(=O)c1cnc(Nc2ccn(CC(=O)NC3CCOCC3)n2)s1 [BAA-195]	–	–	–	< 50	> 11	Y (1000-5000 fold)
COCCNc1ncc(C(=O)Nc2c(C)ccc(O)c2C)s1 [BAA-063, N-(3-hydroxy-2,6-dimethyl-phenyl)-2-(2-methoxyethylamino)thiazole-5-carboxamide]	–	–	–	1000 to 11000	> 11	>W (10-<100 fold)
CCCN1CC[C@@H](n2ccc(Nc3ncc(C(=O)Nc4c(C)ccc(O)c4C)s3)n2)C1 [BAA-114, N-(3-Hydroxy-2,6-dimethyl-phenyl)-2-[[1-[(3R)-1-propylpyrrolidin-3-yl]pyrazol-3-yl]amino]thiazole-5-carboxamide]	–	–	–	50 to 1000	> 11	>X (100-<1000 fold)
COc1ccc(CC(=O)N2CCC(CNc3ncc(C(=O)Nc4c(C)ccc(O)c4C)s3)CC2)nc1 [BAA-100, N-(3-Hydroxy-2,6-dimethyl-phenyl)-2-[[1-[2-(5-methoxy-2-pyridyl)acetyl]-4-piperidyl]methylamino]thiazole-5-carboxamide]	–	–	–	50 to 1000	> 11	>X (100-<1000 fold)
Cc1ccc(O)c(C)c1NC(=O)c1cnc(Nc2ccn(CCO)n2)s1 [BAA-011]	–	–	–	< 50	1 to 11	W (10-<100 fold)
CCOC(=O)Cn1ccc(Nc2ncc(C(=O)Nc3c(C)ccc(O)c3C)s2)n1 [BAA-023]	–	–	–	< 50	1 to 11	X (100-<1000 fold)
Cc1ccc(O)c(C)c1NC(=O)c1cnc(Nc2ccn(CC(=O)NC3CCCCC3)n2)s1 [BAA-193]	–	–	–	< 50	> 11	Y (1000-5000 fold)
Cc1ccc(O)c(C)c1NC(=O)c1cnc(NCCO)s1 [BAA-062, N-(3-hydroxy-2,6-dimethyl-phenyl)-2-(2-hydroxyethylamino)thiazole-5-carboxamide]	–	–	–	1000 to 11000	> 11	>W (10-<100 fold)
Cc1ccc(O)c(C)c1NC(=O)c1cnc(Nc2cc(C(=O)OC(C)(C)C)n(C)n2)s1 [BAA-253, tert-butyl 3-((5-((3-hydroxy-2,6-dimethylphenyl)carbamoyl)thiazol-2-yl)amino)-1-methyl-1H-pyrazole-5-carboxylate]	–	–	–	50 to 1000	> 11	X (100-<1000 fold)
Cc1ccc(O)c(C)c1NC(=O)c1cnc(Nc2noc(C)c2C)s1 [BAA-439, 2-((4,5-dimethylisoxazol-3-yl)amino)-N-(3-hydroxy-2,6-dimethylphenyl)thiazole-5-carboxamide]	< 50	1 to 11	X (100-<1000 fold)	–	–	–
Cc1ccc(O)c(C)c1NC(=O)c1cnc(NCc2nccs2)s1 [BAA-358, N-(3-hydroxy-2,6-dimethylphenyl)-2-((thiazol-2-ylmethyl)amino)thiazole-5-carboxamide]	–	–	–	50 to 1000	> 11	X (100-<1000 fold)
Cc1ccc(O)c(C)c1NC(=O)c1cnc(Nc2nn(C)c3cccc(F)c23)s1 [BAA-444, 2-((4-fluoro-1-methyl-1H-indazol-3-yl)amino)-N-(3-hydroxy-2,6-dimethylphenyl)thiazole-5-carboxamide]	< 50	> 11	X (100-<1000 fold)	–	–	–
